± gives the expanded uncertainty stated by the source.
Assay: molar heat capacity at constant pressure
Details: 101.33 kPa, Liquid, Small sample (50 mg) DSC

Row | Compound | molar heat capacity at constant pressure (296.2 K) | molar heat capacity at constant pressure (300.2 K) | molar heat capacity at constant pressure (304.2 K) | molar heat capacity at constant pressure (308.2 K) | molar heat capacity at constant pressure (312.2 K) | molar heat capacity at constant pressure (316.2 K) | molar heat capacity at constant pressure (320.2 K) | molar heat capacity at constant pressure (324.2 K) | molar heat capacity at constant pressure (328.2 K) | molar heat capacity at constant pressure (332.2 K) | molar heat capacity at constant pressure (336.2 K) | molar heat capacity at constant pressure (340.2 K) | molar heat capacity at constant pressure (344.2 K) | molar heat capacity at constant pressure (348.2 K) | molar heat capacity at constant pressure (352.2 K) | molar heat capacity at constant pressure (356.2 K) | molar heat capacity at constant pressure (360.2 K) | molar heat capacity at constant pressure (364.2 K) | molar heat capacity at constant pressure (368.2 K) | molar heat capacity at constant pressure (372.2 K)
1 | CCn1cc[n+](C)c1.N#C[C-](C#N)C#N [1-ethyl-3-methyl-1H-imidazolium tricyanomethanide] | 357.18 ± 57 J/K/mol | 360.2 ± 58 J/K/mol | 362.41 ± 58 J/K/mol | 363.82 ± 58 J/K/mol | 365.83 ± 59 J/K/mol | 367.44 ± 59 J/K/mol | 368.85 ± 59 J/K/mol | 370.26 ± 60 J/K/mol | 372.07 ± 60 J/K/mol | 374.49 ± 60 J/K/mol | 376.9 ± 61 J/K/mol | 379.31 ± 61 J/K/mol | 381.73 ± 61 J/K/mol | 384.35 ± 62 J/K/mol | 387.16 ± 62 J/K/mol | 390.18 ± 63 J/K/mol | 393 ± 63 J/K/mol | 396.22 ± 64 J/K/mol | 399.24 ± 64 J/K/mol | 403.06 ± 65 J/K/mol
2 | CCn1cc[n+](C)c1.N#CN=C=[N-] [1-ethyl-3-methylimidazolium dicyanamide] | 323.76 ± 52 J/K/mol | 325.88 ± 52 J/K/mol | 328.01 ± 53 J/K/mol | 329.96 ± 53 J/K/mol | 332.44 ± 53 J/K/mol | 334.21 ± 54 J/K/mol | 335.81 ± 54 J/K/mol | 337.76 ± 54 J/K/mol | 340.24 ± 55 J/K/mol | 342.89 ± 55 J/K/mol | 345.55 ± 55 J/K/mol | 348.21 ± 56 J/K/mol | 351.22 ± 56 J/K/mol | 354.41 ± 57 J/K/mol | 357.78 ± 57 J/K/mol | 361.15 ± 58 J/K/mol | 364.87 ± 59 J/K/mol | 368.59 ± 59 J/K/mol | 372.49 ± 60 J/K/mol | 376.74 ± 60 J/K/mol
3 | O=S1(=O)CCCC1 [sulfolane] |  |  |  | 182.42 ± 29 J/K/mol | 183.5 ± 29 J/K/mol | 184.7 ± 30 J/K/mol | 185.9 ± 30 J/K/mol | 187.11 ± 30 J/K/mol | 188.79 ± 30 J/K/mol | 190.47 ± 31 J/K/mol | 192.39 ± 31 J/K/mol | 194.32 ± 31 J/K/mol | 196.36 ± 31 J/K/mol | 198.52 ± 32 J/K/mol | 200.81 ± 32 J/K/mol | 203.21 ± 33 J/K/mol | 205.73 ± 33 J/K/mol | 208.26 ± 33 J/K/mol | 210.9 ± 34 J/K/mol | 213.66 ± 34 J/K/mol

Reference: the NIST ThermoML archive (doi:10.1021/je400140n)
